Several values for one entry are separate records, joined by “and”; a condition that tells them apart may be missing. Equal entries are not always repeated.

In the assay the target is T1, full length active recombinant SYK enzyme (Homo sapiens, UniProt P43405).
T1 construct: full length active recombinant SYK enzyme (Millipore, Calif.); purchased Millipore
Description: Inhibition of Syk tyrosine phosphorylation activity (LANCE TR-FRET kinase assay). The class given is biochemical.
In the case of `CC[C@@H](Nc1nc(Nc2cc(C)ns2)c(C(N)=O)cc1F)C(N)=O` [Example 239, (R)-6-(1-amino-1-oxobutan-2-ylamino)-5-fluoro-2-(3-methylisothiazol-5-ylamino)nicotinamide], the IC50 was in the range of 10 to 100 nM.

For `CC[C@@H](Nc1nc(Nc2cccc3c2cnn3C)c(C(N)=O)cc1F)C(N)=O` [Example 240, (R)-6-(1-amino-1-oxobutan-2-ylamino)-5-fluoro-2-(1-methyl-1H-indazol-4-ylamino)nicotinamide], the IC50 was in the range of 100 to 1000 nM.

On to `CC[C@@H](Nc1nc(Nc2ccc3c(cnn3C)c2)c(C(N)=O)cc1F)C(N)=O` [Example 241, (R)-6-(1-amino-1-oxobutan-2-ylamino)-5-fluoro-2-(1-methyl-1H-indazol-5-ylamino)nicotinamide], for which the IC50 lay within 10 to 100 nM.

Regarding `CC[C@@H](Nc1nc(Nc2ccnc3ccccc23)c(C(N)=O)cc1F)C(N)=O` [Example 242, (R)-6-(1-amino-1-oxobutan-2-ylamino)-5-fluoro-2-(quinolin-4-ylamino)nicotinamide], the IC50 is 10 to 100 nM.

Take `CC[C@@H](Nc1nc(Nc2cccc3c2ccn3C)c(C(N)=O)cc1F)C(N)=O` [Example 243, (R)-6-(1-amino-1-oxobutan-2-ylamino)-5-fluoro-2-(1-methyl-1H-indol-4-ylamino)nicotinamide]: the IC50 is 10 to 100 nM.

Take `CC[C@@H](Nc1nc(Nc2ccc3c(ccn3C)c2)c(C(N)=O)cc1F)C(N)=O` [Example 244, (R)-6-(1-amino-1-oxobutan-2-ylamino)-5-fluoro-2-(1-methyl-1H-indol-5-ylamino)nicotinamide]: the IC50 was in the range of 100 to 1000 nM.

Regarding `CC[C@@H](Nc1nc(Nc2cccc3ncccc23)c(C(N)=O)cc1F)C(N)=O` [Example 245, (R)-6-(1-amino-1-oxobutan-2-ylamino)-5-fluoro-2-(quinolin-5-ylamino)nicotinamide], the IC50 is 10 to 100 nM.

Turning to `CC(C)C[C@@H](Nc1nc(Nc2ccc3cccnc3c2)c(C(N)=O)cc1F)C(N)=O` [Example 246, (R)-6-(1-amino-4-methyl-1-oxopentan-2-ylamino)-5-fluoro-2-(quinolin-7-ylamino)nicotinamide], the IC50 lay within 10 to 100 nM.

On to `CC(C)C[C@@H](Nc1nc(Nc2cnc3ccccc3c2)c(C(N)=O)cc1F)C(N)=O` [Example 247, (R)-6-(1-amino-4-methyl-1-oxopentan-2-ylamino)-5-fluoro-2-(quinolin-3-ylamino)nicotinamide], for which the IC50 lay within 10 to 100 nM.

As to `CC(C)C[C@@H](Nc1nc(Nc2ccc3ncccc3c2)c(C(N)=O)cc1F)C(N)=O` [Example 248, (R)-6-(1-amino-4-methyl-1-oxopentan-2-ylamino)-5-fluoro-2-(quinolin-6-ylamino)nicotinamide], the IC50 was in the range of 1 to 10 nM.

For the compound `CC(C)C[C@@H](Nc1nc(Nc2ccc3c(ccn3C)c2)c(C(N)=O)cc1F)C(N)=O` [Example 249, (R)-6-(1-amino-4-methyl-1-oxopentan-2-ylamino)-5-fluoro-2-(1-methyl-1H-indol-5-ylamino)nicotinamide], the IC50 was in the range of 10 to 100 nM.

With `NC(=O)c1cc(F)c(N[C@H](CC2CC2)C(N)=O)nc1Nc1ccc2cccnc2c1` [Example 250, (R)-6-(1-amino-3-cyclopropyl-1-oxopropan-2-ylamino)-5-fluoro-2-(quinolin-7-ylamino)nicotinamide], the IC50 was 10 to 100 nM.

For the compound `NC(=O)c1cc(F)c(N[C@H](CC2CC2)C(N)=O)nc1Nc1cnc2ccccc2c1` [Example 251, (R)-6-(1-amino-3-cyclopropyl-1-oxopropan-2-ylamino)-5-fluoro-2-(quinolin-3-ylamino)nicotinamide], the IC50 fell in the range of 1 to 10 nM.

For `NC(=O)c1cc(F)c(N[C@H](CC2CC2)C(N)=O)nc1Nc1ccc2ncccc2c1` [Example 252, (R)-6-(1-amino-3-cyclopropyl-1-oxopropan-2-ylamino)-5-fluoro-2-(quinolin-6-ylamino)nicotinamide], the IC50 was 1 to 10 nM.

Consider `Cc1cc(Nc2nc(N[C@H](CC3CC3)C(N)=O)c(F)cc2C(N)=O)sn1` [Example 253, (R)-6-(1-amino-3-cyclopropyl-1-oxopropan-2-ylamino)-5-fluoro-2-(3-methylisothiazol-5-ylamino)nicotinamide], for which the IC50 was 10 to 100 nM.

With `NC(=O)c1ccc(N[C@@H]2CCCC[C@@H]2N)nc1Nc1ccc2c(c1)OCCO2` [Example 254, 6-((1R,2S)-2-aminocyclohexylamino)-2-(2,3-dihydrobenzo[b][1,4]dioxin-6-ylamino)nicotinamide], the IC50 fell in the range of 1 to 10 nM.

As to `NC(=O)c1ccc(N[C@@H]2CCCC[C@@H]2N)nc1Nc1ccc2c(c1)OCO2` [Example 255], the IC50 was 1 to 10 nM and 10 to 100 nM.

With `Cc1cncc(Nc2nc(N[C@@H]3CCCC[C@@H]3N)ccc2C(N)=O)c1` [Example 256], the IC50 was 1 to 10 nM.

Regarding `C[C@H](N)CNc1nc(Nc2cccc(-n3nccn3)c2)c(C(N)=O)cc1F` [Example 257, (S)-2-(3-(2H-1,2,3-triazol-2-yl)phenylamino)-6-(2-aminopropylamino)-5-fluoronicotinamide], the IC50 lay within 1 to 10 nM.

For `C[C@H](N)CNc1nc(Nc2cccc(-c3ncccn3)c2)c(C(N)=O)cc1F` [Example 258, (S)-2-(3-(pyrimidin-2-yl)phenylamino)-6-(2-aminopropylamino)-5-fluoronicotinamide], the IC50 lay in the range of 10 to 100 nM.

On to `C[C@H](N)CNc1nc(Nc2cccc(-n3cccn3)c2)c(C(N)=O)cc1F` [Example 259, (S)-2-(3-(1H-pyrazol-1-yl)phenylamino)-6-(2-aminopropylamino)-5-fluoronicotinamide], for which the 50% inhibitory concentration (IC50) was 1 to 10 nM.

As for `Cc1cncc(Nc2nc(NC[C@H](C)N)c(F)cc2C(N)=O)c1` [Example 260, (S)-2-(5-methylpyridin-3-ylamino)-6-(2-aminopropylamino)-5-fluoronicotinamide], the IC50 fell in the range of 10 to 100 nM.

On to `C[C@H](N)CNc1nc(Nc2cncc(F)c2)c(C(N)=O)cc1F` [Example 261, (S)-2-(5-fluoropyridin-3-ylamino)-6-(2-aminopropylamino)-5-fluoronicotinamide], for which the IC50 was 100 to 1000 nM.

Take `CC[C@@H](Nc1nc(Nc2cccc(OC(F)(F)F)c2)c(C(N)=O)cc1F)C(N)=O` [Example 263, (R)-6-(1-amino-1-oxobutan-2-ylamino)-5-fluoro-2-(3-(trifluoromethoxy)phenylamino)nicotinamide]: the IC50 was in the range of 100 to 1000 nM.

As to `CC[C@@H](Nc1nc(Nc2cccc(OC(F)F)c2)c(C(N)=O)cc1F)C(N)=O` [Example 264, (R)-6-(1-amino-1-oxobutan-2-ylamino)-5-fluoro-2-(3-(difluoromethoxy)phenylamino)nicotinamide], the concentration for half-maximal inhibition (IC50) lay in the range of 100 to 1000 nM.

Take `CC(C)C[C@@H](Nc1nc(Nc2cccc(Cl)c2)c(C(N)=O)cc1F)C(N)=O` [Example 265, (R)-6-(1-amino-4-methyl-1-oxopentan-2-ylamino)-5-fluoro-2-(3-chlorophenylamino)nicotinamide]: the IC50 was 10 to 100 nM.

As to `CC(C)C[C@@H](Nc1nc(Nc2ccc(F)c(Cl)c2)c(C(N)=O)cc1F)C(N)=O` [Example 266, (R)-6-(1-amino-4-methyl-1-oxopentan-2-ylamino)-5-fluoro-2-(3-chloro-4-fluorophenylamino)nicotinamide], the IC50 is 10 to 100 nM.

Regarding `NC(=O)c1cc(F)c(N[C@@H]2CCOC[C@@H]2N)nc1Nc1cnc2ccccc2c1` [Example 275, 6-((3R,4R)-3-aminotetrahydro-2H-pyran-4-ylamino)-5-fluoro-2-(quinolin-3-ylamino)nicotinamide], the IC50 lay in the range of 10 to 100 nM.

For `NC(=O)c1ccc(N[C@@H]2CCOC[C@@H]2N)nc1Nc1ccc2ncccc2c1` [Example 276, 6-((3R,4R)-3-aminotetrahydro-2H-pyran-4-ylamino)-2-(quinolin-6-ylamino)nicotinamide], the IC50 fell in the range of 1 to 10 nM.

Consider `NC(=O)c1cc(F)c(N[C@@H]2CCOC[C@@H]2N)nc1Nc1cccc(-n2nccn2)c1` [Example 279, 2-(3-(2H-1,2,3-triazol-2-yl)phenylamino)-6-((3R,4R)-3-aminotetrahydro-2H-pyran-4-ylamino)-5-fluoronicotinamide], for which the IC50 was 1 to 10 nM.

Consider `NC(=O)c1cc(F)c(N[C@@H]2CCCC(F)(F)[C@@H]2N)nc1Nc1cnc2ccccc2c1` [Example 289, 6-((1R,2R)-2-amino-3,3-difluorocyclohexylamino)-5-fluoro-2-(quinolin-3-ylamino)nicotinamide], for which the IC50 is 100 to 1000 nM.

Consider `NC(=O)c1cc(F)c(N[C@@H]2CCCC(F)(F)[C@@H]2N)nc1Nc1ccc2ncccc2c1` [Example 291, 6-((1R,2R)-2-amino-3,3-difluorocyclohexylamino)-5-fluoro-2-(quinolin-6-ylamino)nicotinamide], for which the IC50 was in the range of 10 to 100 nM.

Turning to `NC(=O)c1cc(F)c(N[C@@H]2CCCC(F)(F)[C@@H]2N)nc1Nc1cccc(-n2nccn2)c1` [Example 293], the IC50 is 100 to 1000 nM.

In the case of `CC(C)[C@@H](Nc1nc(Nc2cnc3ccccc3c2)c(C(N)=O)cc1F)C(N)=O` [Example 300, (R)-6-(1-amino-3-methyl-1-oxobutan-2-ylamino)-5-fluoro-2-(quinolin-3-ylamino)nicotinamide], the IC50 is 10 to 100 nM.

As for `NC(=O)c1cc(F)c(N[C@H](CC(F)(F)F)C(N)=O)nc1Nc1cnc2ccccc2c1` [Example 301, (R)-6-(1-amino-4,4,4-trifluoro-1-oxobutan-2-ylamino)-5-fluoro-2-(quinolin-3-ylamino)nicotinamide], the IC50 was 10 to 100 nM.

On to `C[C@@H](Nc1nc(Nc2ccc3ncccc3c2)c(C(N)=O)cc1F)C(N)=O` [Example 302, (R)-6-(1-amino-1-oxopropan-2-ylamino)-5-fluoro-2-(quinolin-6-ylamino)nicotinamide], for which the IC50 lay within 10 to 100 nM.

With `CC[C@@H](Nc1nc(Nc2ccc(C3CC[N+](C)([O-])CC3)cc2)c(C(N)=O)cc1F)C(N)=O` (stereo partly drawn) [Example 308, (R)-4-(4-(6-(1-amino-1-oxobutan-2-ylamino)-3-carbamoyl-5-fluoropyridin-2-ylamino)phenyl)-1-methylpiperidine 1-oxide], the IC50 was in the range of 100 to 1000 nM.

Broadly, the IC50 is the concentration needed to halve the response being measured.

For the origin of these results see US8846928B2 (Portola Pharmaceuticals, Inc., priority 2010, dated 2014).
